Data taken from publication PMC4977052, “On the Utility of ToxCast™ and ToxPi as Methods for Identifying New Obesogens” (Environmental Health Perspectives, 2016).
Where two headings read alike, the source gives them in different places.

Tests used:
[1] = target: T1, GAL4-mPPARγ (Mus musculus, UniProt P37238); experiment: GAL4-mPPARγ activation, transient transfection luciferase reporter in COS7 cells; type: cell-based; conditions: for Activation of GAL4-PPARγ (text): COS7, 100 μM through 0.137 μM; for EC50: COS7, ligands 24 hr, nonlinear regression variable slope, spirodiclofen constrained at top dose, read-out: PPARγ agonists: EC50, Fig 1A / Fig 4A; for PPARγ agonists: EC10, Fig 1A / Fig 4A: COS7, computed from EC50 in GraphPad Quick Calc
T1 construct: expressed in transfected cells; host or cells: COS7

[2] = test system: 3T3-L1 preadipocytes; experiment: 3T3-L1 adipogenesis assay (lipid accumulation, adipogenic gene expression); type: cell-based; conditions: for Adipogenesis 3T3-L1 (result in words): 0.02-20 μM, 5 days after MDI induction; for Adipogenic gene expression (Fabp4, Fsp27, Lpl), QPCR: 3T3-L1, Figure 2A; for Induction of adipogenesis in 3T3-L1 preadipocytes, doses: lipid accumulation, Nile red/Hoechst, Figure 2A
Procedure, shortened: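 After 2-day MDI induction with biotin and pantothenate, 3T3-L1 cells were treated 5 days with chemicals at 0.02–20 μM (0.1% DMSO; 10 μM if toxic). Lipid read as Nile red/Hoechst fluorescence ratio; adipogenic genes by QPCR, 2^ΔΔCt versus 36b4, normalized to DMSO.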

[3] = test system: PPARγ; conditions: cited from earlier work; for PPARγ agonists: EC10, ATG: AC10, ToxCast 2014 release; for AC50: PPARγ, NA = not active; for EC50: gain AC50, ToxCast 2014 release, read-out: PPARγ agonists: EC50, ATG
[4] = Cos-7 transient transfection, PPARγ activation or antagonism assays (Table 1, Table S6)
[5] = ref Filer et al. 2014, read-out: ATG Agonist AC50, 2014 Release
[6] = ref Knudsen et al. 2011, read-out: ATG Agonist AC50, 2011 Release

T1 sequence (P37238 with tags, fused parts or gaps limits assumed): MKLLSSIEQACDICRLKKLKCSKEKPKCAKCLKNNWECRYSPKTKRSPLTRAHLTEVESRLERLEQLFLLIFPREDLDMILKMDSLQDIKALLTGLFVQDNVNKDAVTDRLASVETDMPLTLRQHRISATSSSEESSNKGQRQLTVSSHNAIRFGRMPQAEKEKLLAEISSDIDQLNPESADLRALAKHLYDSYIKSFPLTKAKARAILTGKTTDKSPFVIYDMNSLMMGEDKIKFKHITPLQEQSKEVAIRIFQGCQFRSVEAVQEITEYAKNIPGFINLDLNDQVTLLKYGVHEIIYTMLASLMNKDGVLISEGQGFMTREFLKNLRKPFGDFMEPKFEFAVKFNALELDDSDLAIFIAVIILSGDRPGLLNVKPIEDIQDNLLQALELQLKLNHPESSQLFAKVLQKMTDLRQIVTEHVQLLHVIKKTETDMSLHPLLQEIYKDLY

SMILES	Activation COS7 (result in words), ToxCast PPARγ list [1]	Activation of GAL4-PPARγ (text) [1]	Activation of GAL4-PPARγ (text) ([1]; listed as quinoxyfen)	EC50 [1]	PPARγ agonists: EC10, Fig 1A / Fig 4A [1]	AC50 ([1]; Cos-7 transient transfection)	Activation COS7 (result in words), ToxCast PPARγ list [1, 4]	Activation COS7 (result in words), ToxPi chemicals ([1]; Cos-7 transient transfection, PPARγ or RXRα activation assays (Table 2))	Adipogenesis 3T3-L1 (result in words) [2]	PPARγ agonists: EC10, ATG ([3]; ref Filer et al. 2014)	AC50 [3, 5]	AC50 [3, 6]	EC50 ([3]; ref Filer et al. 2014)	AC50 ([1]; read-out: Activation AC50 (PPARγ activators), Cos-7 transient transfection)	Adipogenic gene expression (Fabp4, Fsp27, Lpl), QPCR [2]	Induction of adipogenesis in 3T3-L1 preadipocytes, doses [2]	Lipid accumulation: TOXIC mark in place of bar [2]	Concentration toxic to 3T3-L1 cells ([2]; mouse, 5 days)
Fc1ccc(Oc2ccnc3cc(Cl)cc(Cl)c23)cc1 [Quinoxyfen]	Inactive	weakly active at 100 μM and 33 μM doses	activated PPARγ	33.4 µM	14.24 µM	33.4 µM	PPARγ Activator	PPARγ activator	Positive	3.98 µM	5.1 µM	6.6 µM	5.12 µM	–	–	–	–	–
CCC(C)(C)C(=O)OC1=C(c2ccc(Cl)cc2Cl)C(=O)OC12CCCCC2 [Spirodiclofen]	–	activated GAL-PPARγ	–	12.8 µM	7.27 µM	–	PPARγ activator	–	Positive	0.10 µM	1.9 µM	3.6 µM	1.85 µM	12.8 µM	increases	induced adipogenesis at all doses tested	–	–
O=[N+]([O-])c1cc(C(F)(F)F)c(Cl)c([N+](=O)[O-])c1Nc1ncc(C(F)(F)F)cc1Cl [Fluazinam]	–	did not activate PPARγ	–	–	–	–	–	–	Negative	–	1.2 µM	0.51 µM	–	–	–	–	–	–
CCC(C)(NC(=O)c1cc(Cl)c(C)c(Cl)c1)C(=O)CCl (stereo not shown) [Zoxamide]	–	activated GAL-PPARγ	–	1.31 µM	0.31 µM	1.31 µM	PPARγ activator	–	Positive	0.18 µM	1.3 µM	1.5 µM	1.27 µM	–	increases	induced adipogenesis at the lowest dose	TOXIC	≥ 10 µM
